Activity calls are given as the source filed them. The rule behind the calls is not given here.

In one assay the test system is SH-SY5Y. Kind of assay: Neuroprotective activity against MPP+-induced toxicity in human SH-SY5Y cells assessed as increase in cell viability at 100 nM preincubated for 4 hrs followed by incubation with MPP+ for 20 hrs measured after 24 hrs by MTS assay relative to control. The class given is functional.
Assay [1] concerns the target T1, Vasoactive intestinal polypeptide receptor 2 (Homo sapiens, UniProt P41587).
T1 sequence (P41587 whole entry): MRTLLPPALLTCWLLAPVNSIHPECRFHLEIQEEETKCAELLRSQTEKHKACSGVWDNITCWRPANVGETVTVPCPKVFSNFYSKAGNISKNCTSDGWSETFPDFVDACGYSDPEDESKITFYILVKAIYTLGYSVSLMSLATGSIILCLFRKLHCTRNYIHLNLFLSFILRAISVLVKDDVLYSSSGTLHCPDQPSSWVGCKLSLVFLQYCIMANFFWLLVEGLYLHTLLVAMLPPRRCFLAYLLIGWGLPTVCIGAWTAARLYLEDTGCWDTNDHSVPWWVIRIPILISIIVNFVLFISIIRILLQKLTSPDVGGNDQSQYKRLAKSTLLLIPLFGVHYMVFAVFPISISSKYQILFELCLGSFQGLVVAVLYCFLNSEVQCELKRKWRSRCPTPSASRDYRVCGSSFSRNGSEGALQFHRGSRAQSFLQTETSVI
Kind of assay: Displacement of Ac-[125I]-PACAP27 from recombinant human VPAC2 expressed in CHO cells after 90 mins by gamma counting analysis. Type of assay: cell-based.

Assay [2] concerns the target T2, Vasoactive intestinal polypeptide receptor 1 (Homo sapiens, UniProt P32241).
T2 sequence (P32241 whole entry): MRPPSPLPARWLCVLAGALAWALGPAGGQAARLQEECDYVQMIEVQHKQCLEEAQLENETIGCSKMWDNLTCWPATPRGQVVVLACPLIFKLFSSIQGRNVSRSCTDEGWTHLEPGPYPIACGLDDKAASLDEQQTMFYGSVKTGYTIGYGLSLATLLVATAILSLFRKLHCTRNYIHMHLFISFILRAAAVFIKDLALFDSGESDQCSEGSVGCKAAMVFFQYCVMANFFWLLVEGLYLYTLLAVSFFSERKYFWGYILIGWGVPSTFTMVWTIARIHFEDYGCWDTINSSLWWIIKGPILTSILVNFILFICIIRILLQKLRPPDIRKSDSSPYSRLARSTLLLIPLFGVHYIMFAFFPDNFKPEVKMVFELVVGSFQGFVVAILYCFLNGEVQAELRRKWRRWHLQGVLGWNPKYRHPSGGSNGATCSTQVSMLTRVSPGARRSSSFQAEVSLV
Kind of assay: Displacement of Ac-[125I]-PACAP27 from recombinant human VPAC1 expressed in CHO cells after 90 mins by gamma counting analysis. The class given is cell-based.

In assay [3] the target is T3, Vasoactive intestinal polypeptide receptor 2 (Homo sapiens) (UniProt P41587).
T3 sequence (whole entry): T1 sequence (P41587 whole entry)
Kind of assay: Activation of VPAC2 in human SH-SY5Y cells assessed as stimulation of forskolin-induced cAMP production at 10^-7 to 10^-5 M after 30 mins. Type of assay: functional, cell-based. A general note: Cyclic AMP is a second messenger, typically raised through Gs and lowered through Gi signalling.

The target of assay [4] is T4, Pituitary adenylate cyclase-activating polypeptide type I receptor (Homo sapiens, UniProt P41586). Kind of assay: Activation of PAC1 in human SH-SY5Y cells assessed as stimulation of forskolin-induced cAMP production at 10^-7 to 10^-5 M after 30 mins. The class given is cell-based.
Target sequence in this assay (P41586 21-468 limits assumed): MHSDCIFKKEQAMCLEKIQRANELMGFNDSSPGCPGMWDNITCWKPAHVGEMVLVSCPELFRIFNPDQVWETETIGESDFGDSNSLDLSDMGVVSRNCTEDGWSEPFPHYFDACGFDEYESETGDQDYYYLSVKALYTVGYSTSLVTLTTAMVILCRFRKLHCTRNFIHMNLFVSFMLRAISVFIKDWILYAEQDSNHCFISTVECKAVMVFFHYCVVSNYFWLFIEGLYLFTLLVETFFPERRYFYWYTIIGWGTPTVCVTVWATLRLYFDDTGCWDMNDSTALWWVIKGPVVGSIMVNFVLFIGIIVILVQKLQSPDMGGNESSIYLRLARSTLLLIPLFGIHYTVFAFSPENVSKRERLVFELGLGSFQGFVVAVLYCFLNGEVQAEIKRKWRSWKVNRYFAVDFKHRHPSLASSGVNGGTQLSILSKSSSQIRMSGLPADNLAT
Assay [5] deals with T4, Pituitary adenylate cyclase-activating polypeptide type I receptor. Kind of assay: Displacement of Ac-[125I]-PACAP27 from recombinant human PAC1 expressed in CHO cells after 90 mins by gamma counting analysis. Type of assay: cell-based.
Target sequence in this assay (P41586 whole entry): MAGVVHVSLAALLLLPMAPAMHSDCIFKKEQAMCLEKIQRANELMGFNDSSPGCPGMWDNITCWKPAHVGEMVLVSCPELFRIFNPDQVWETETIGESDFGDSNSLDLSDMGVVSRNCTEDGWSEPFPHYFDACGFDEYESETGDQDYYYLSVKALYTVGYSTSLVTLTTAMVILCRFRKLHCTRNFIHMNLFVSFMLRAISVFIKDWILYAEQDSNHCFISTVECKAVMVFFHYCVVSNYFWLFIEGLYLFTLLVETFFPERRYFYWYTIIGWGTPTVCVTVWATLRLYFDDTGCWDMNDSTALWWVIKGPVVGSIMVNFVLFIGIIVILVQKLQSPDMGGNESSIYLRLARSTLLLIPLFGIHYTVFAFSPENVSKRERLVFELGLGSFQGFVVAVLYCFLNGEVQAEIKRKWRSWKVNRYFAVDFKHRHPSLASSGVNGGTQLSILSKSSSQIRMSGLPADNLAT
The target of assay [6] is T5, Vasoactive intestinal polypeptide receptor 1 (Homo sapiens) (UniProt P32241).
T5 sequence (whole entry): T2 sequence (P32241 whole entry)
Kind of assay: Activation of VPAC1 in human SH-SY5Y cells assessed as stimulation of forskolin-induced cAMP production at 10^-7 to 10^-5 M after 30 mins. Type of assay: functional, cell-based.

For the molecule `CC[C@H](C)[C@H](NC(=O)CNC(=O)[C@H](CC(=O)O)NC(=O)[C@H](CO)NC(=O)[C@@H](N)Cc1cnc[nH]1)C(=O)N[C@@H](Cc1ccccc1)C(=O)N[C@H](C(=O)N[C@@H](CC(=O)O)C(=O)N[C@@H](CO)C(=O)N[C@@H](Cc1ccc(O)cc1)C(=O)N[C@@H](CO)C(=O)N[C@@H](CCCNC(=N)N)C(=O)N[C@@H](Cc1ccc(O)cc1)C(=O)N[C@@H](CCCNC(=N)N)C(=O)N[C@@H](CCCCN)C(=O)N[C@@H](CCC(N)=O)C(=O)N[C@@H](CCSC)C(=O)N[C@@H](C)C(=O)N[C@H](C(=O)N[C@@H](CCCCN)C(=O)N[C@@H](CCCCN)C(=O)N[C@@H](Cc1ccc(O)cc1)C(=O)N[C@@H](CC(C)C)C(=O)N[C@@H](C)C(=O)N[C@@H](C)C(=O)N[C@H](C(=O)N[C@@H](CC(C)C)C(N)=O)C(C)C)C(C)C)[C@@H](C)O`, the Activity in the assay on SH-SY5Y came out at 85%.
For the molecule `CC[C@H](C)[C@H](NC(=O)CNC(=O)[C@H](CC(=O)O)NC(=O)[C@H](CO)NC(=O)[C@@H](N)Cc1cnc[nH]1)C(=O)N[C@@H](Cc1ccc(-c2ccccc2)cc1)C(=O)N[C@H](C(=O)N[C@@H](CC(=O)O)C(=O)N[C@@H](CO)C(=O)N[C@@H](Cc1ccc(O)cc1)C(=O)N[C@@H](CO)C(=O)N[C@@H](CCCNC(=N)N)C(=O)N[C@@H](Cc1ccc(O)cc1)C(=O)N[C@@H](CCCNC(=N)N)C(=O)N[C@@H](CCCCN)C(=O)N[C@@H](CCC(N)=O)C(=O)N[C@@H](CCSC)C(=O)N[C@@H](C)C(=O)N[C@H](C(=O)N[C@@H](CCCCN)C(=O)N[C@@H](CCCCN)C(=O)N[C@@H](Cc1ccc(O)cc1)C(=O)N[C@@H](CC(C)C)C(=O)N[C@@H](C)C(=O)N[C@@H](C)C(=O)N[C@H](C(=O)N[C@@H](CC(C)C)C(N)=O)C(C)C)C(C)C)[C@@H](C)O`, the IC50 was 22.9 nM in assay [1] (read-out: pIC50 (converted)) and 14.1 nM in assay [2] (read-out: pIC50 (converted)).
In the case of `CC[C@H](C)[C@H](NC(=O)CNC(=O)[C@H](CC(=O)O)NC(=O)[C@H](CO)NC(=O)[C@@H](N)Cc1cnc[nH]1)C(=O)N[C@@H](Cc1ccc(C#Cc2ccccc2)cc1)C(=O)N[C@H](C(=O)N[C@@H](CC(=O)O)C(=O)N[C@@H](CO)C(=O)N[C@@H](Cc1ccc(O)cc1)C(=O)N[C@@H](CO)C(=O)N[C@@H](CCCNC(=N)N)C(=O)N[C@@H](Cc1ccc(O)cc1)C(=O)N[C@@H](CCCNC(=N)N)C(=O)N[C@@H](CCCCN)C(=O)N[C@@H](CCC(N)=O)C(=O)N[C@@H](CCSC)C(=O)N[C@@H](C)C(=O)N[C@H](C(=O)N[C@@H](CCCCN)C(=O)N[C@@H](CCCCN)C(=O)N[C@@H](Cc1ccc(O)cc1)C(=O)N[C@@H](CC(C)C)C(=O)N[C@@H](C)C(=O)N[C@@H](C)C(=O)N[C@H](C(=O)N[C@@H](CC(C)C)C(N)=O)C(C)C)C(C)C)[C@@H](C)O`, the outcome in assay [3], in assay [4] and in assay [6] was Active. Besides, in the assay with SH-SY5Y, the Activity was 85%. Besides, the IC50 was 53 nM in assay [1] (read-out: IC50), 53 nM in assay [5] (read-out: IC50), 44.7 nM in assay [5] (read-out: pIC50 (converted)) and 12 nM in assay [2] (read-out: IC50).
Turning to `CC[C@H](C)[C@H](NC(=O)CNC(=O)[C@H](CC(=O)O)NC(=O)[C@H](CO)NC(=O)[C@@H](N)Cc1cnc[nH]1)C(=O)N[C@@H](Cc1ccc(C#Cc2ccc(F)cc2)cc1)C(=O)N[C@H](C(=O)N[C@@H](CC(=O)O)C(=O)N[C@@H](CO)C(=O)N[C@@H](Cc1ccc(O)cc1)C(=O)N[C@@H](CO)C(=O)N[C@@H](CCCNC(=N)N)C(=O)N[C@@H](Cc1ccc(O)cc1)C(=O)N[C@@H](CCCNC(=N)N)C(=O)N[C@@H](CCCCN)C(=O)N[C@@H](CCC(N)=O)C(=O)N[C@@H](CCSC)C(=O)N[C@@H](C)C(=O)N[C@H](C(=O)N[C@@H](CCCCN)C(=O)N[C@@H](CCCCN)C(=O)N[C@@H](Cc1ccc(O)cc1)C(=O)N[C@@H](CC(C)C)C(=O)N[C@@H](C)C(=O)N[C@@H](C)C(=O)N[C@H](C(=O)N[C@@H](CC(C)C)C(N)=O)C(C)C)C(C)C)[C@@H](C)O`, the outcome in assay [3], in assay [4] and in assay [6] was Active. In addition, in the assay on SH-SY5Y, the Activity is 85%. In addition, the IC50 stood at 36 nM in assay [1] (read-out: IC50), 57 nM in assay [5] (read-out: IC50) and 9 nM in assay [2] (read-out: IC50).

(Values after ChEMBL document CHEMBL3734733, “Optimization of on-resin palladium-catalyzed Sonogashira cross-coupling reaction for peptides and its use in a structure-activity relationship study of a class B GPCR ligand” (Eur J Med Chem, 2015).)
